Like-named read-outs stand apart in the source and are kept apart here. Marks after values point to notes of the source that are not given here.
Assays:
[1] = tested on: p53 gene expression in lung cancer cell lines; experiment: qRT-PCR gene expression, p53; type: cell-based, human; conditions: treated lung cancer cell line vs negative control; order 7g, Dox, 7a
Method: (§1) The RNeasy Mini Kit (Qiagen, Hilden, Germany), augmented with a DNaseI (Qiagen) digestion step, was employed to extract total RNA from lung cancer cell lines following the manufacturer's procedure. The isolated total RNA was treated with one unit of RQ1 RNAse-free DNAse (Invitrogen, Germany) to eliminate DNA remnants, re-suspended in DEPC-treated water, and quantified photometrically at 260 nm. The purity of total RNA was evaluated using the 260/280 nm ratio, which ranged from 1.8 to 2.1.[27]
(§2) Furthermore, integrity was confirmed using ethidium bromide-stained examination of 28S and 18S bands via formaldehyde-containing agarose gel electrophoresis. Aliquots were utilized immediately for reverse transcription (RT); otherwise, they were preserved at −80 °C.
(§3) The poly(A) + RNA extracted from the lung cancer cell lines was reverse transcribed into the cDNA in a total amount of 20 μl utilizing the Revert Aid TM First Strand cDNA Synthesis Kit (Fermentas, Germany). A total of 5 μg of RNA was utilized with a master mix. The master mix comprised 50 mM MgCl2, 10× RT buffer (50 mM KCl; 10 mM Tris–HCl; pH 8.3), 10 mM of each dNTP, 50 μM oligo-dT primer, 20 IU ribonuclease inhibitor (50 kDa recombinant enzyme to suppress RNase activity), and 50 IU MuLV reverse transcriptase. Each sample mixture was centrifuged for 30 seconds at 1000 g and thereafter transferred to the thermocycler. The RT reaction was conducted at 25 °C for 10 minutes, subsequently at 42 °C for 1 hour, and concluded with a denaturation phase at 99 °C for 5 minutes. Subsequently, the reaction tubes containing RT-prepared samples were rapidly chilled in an ice chamber prior to cDNA amplification via the quantitative real-time polymerase chain reaction (qRT-PCR).
(§4) The cDNA copy number of lung cancer cell lines was determined using the StepOne™ Real-Time PCR System from Applied Biosystems (Thermo Fisher Scientific, Waltham, MA, USA). […]
(§5) The reaction protocol was divided into three stages. […] The relative quantification of the target gene to the reference gene was assessed using the 2^−ΔΔCT method.[29–31]

A549 (lung carcinoma) = experiment: MTT cytotoxicity assay, A549; type: cell-based; conditions: Homo sapiens; for cytotoxicity at 100 µg/mL: read-out: (%) Mortality A549; for IC50: 48 hour incubation
Method: Using specific human cancer cell lines, the anti-proliferative effectiveness of compounds 7a–j was evaluated in an in vitro assay. The anti-cancer activity of these compounds (7a–j) on various cancer cell lines, including PC3 (Prostate cell line), A549 (Lung carcinoma), PACA2 (Pancreatic cancer cell line) and BJ1 (normal skin fibroblast), was investigated in this study using the 3-(4,5-dimethylthiazol-2-yl)-2,5-diphenyltetrazolium bromide (MTT) test. Doxorubicin (Dox) was the standard medication used as a positive control.
In the initial screening trial, a single dosage concentration of 100 μg ml^−1 was applied for 48 hours. The cytotoxicity of the treated cells was determined by calculating the cell death percentage (% mortality) as a percentage of untreated cells (Table 2).
All incubations were performed at 37 °C in a 5% CO2 incubator with a 95% humidified environment (Sheldon, TC2323; Cornelius, OR, USA). 96-well micro titer polypropylene plates were seeded with cells at a density of 10^4 cells per well in complete DMEM media, and the cells were allowed to adhere for 24 hours. After the media was aspirated, the tested compounds were added to the cells in a single dose of 100 μg ml^−1 in DMSO. Each well received 40 μl of MTT salt (2.5 g ml^−1) following a 48 hour incubation period. 200 μl of 10% sodium dodecyl sulfate (SDS) was added to each well after the reaction ended, and any formazan crystals that could have been produced were dissolved by two hours of incubator heating to 37 °C. The amount of formazan product was measured at 595 nm using a microplate reader (Bio-Rad Laboratories, model 3350, California, USA) with a reference wavelength of 690 nm, serving as a backdrop. Rather than the drugs under investigation, the medium was applied to the untreated cells (negative control). The examined compounds were dissolved in dimethylsulfoxide (DMSO), and the final concentration in the cells was less than 0.2%. For each compound and the control, the solvent concentration was the same.

[2] = tested on: lung cancer cell lines (A549); experiment: DNA damage evaluation using the comet assay; type: cell-based, human; conditions: for DNA damaged cells% (mean ± SEM): A549, comet assay, negative control 11.59 ± 0.65; for Class 0 cells (no tail) / Class 1 cells (tail length < diameter of the nucleus) / Class 2 cells (tail length between 1× and 2× the diameter of the nucleus) / Class 3 cells (tail length > 2× the diameter of the nucleus) / No. of cells: Comets: A549, of 440 cells analyzed
Method: The determination of DNA damage via the comet assay was conducted using lung cancer cell lines, following the methodology established by Olive et al. (1990).[32] Following trypsin treatment to generate a single-cell suspension, approximately 1.5 × 10^4 cells were embedded in 0.75% low-gelling-temperature agarose and swiftly pipetted onto a pre-coated microscope slide.
The samples underwent lysis for 4 hours at 50 °C in a solution containing 0.5% SDS and 30 mM EDTA at pH 8.0. Following an overnight rinse at room temperature in a Tris/borate/EDTA buffer, pH 8.0, samples underwent electrophoresis for 25 minutes at 0.6 V cm^−1 and were subsequently stained with propidium iodide. The slides were examined with a fluorescence microscope equipped with a CCD camera, and 150 individual comet images were analyzed from each sample for a tail moment, DNA content, and percentage of DNA in the tail.
The non-overlapping cells were randomly selected and assigned a score on a scale of 0–3 based on the comet tail length migration and the relative proportion of DNA in the nucleus. Class 0 indicates no detectable DNA damage and no tail; class 1 indicates a tail length less than the diameter of the nucleus; class 2 indicates a tail length between 1× and 2× the nuclear diameter; and class 3 indicates a tail longer than 2× the diameter of the nucleus (Collins et al., 1997).[33]

[3] = tested on: BAX gene expression in lung cancer cell lines; experiment: qRT-PCR gene expression, BAX; type: cell-based, human; conditions: treated lung cancer cell line vs negative control; order 7g, Dox, 7a
Method: as §1, §2, §3, §4, §5

[4] = A549, 100 μg ml^−1, 48 hours, MTT

Row | SMILES | p53 (pro-apoptotic gene) expression level [1] | cytotoxicity at 100 µg/mL (A549 (lung carcinoma); [4]) [%] | IC50 (A549 (lung carcinoma); A549, MTT) [µM] | DNA damaged cells% (mean ± SEM) [2] | Class 0 cells (no tail) [2] | Class 1 cells (tail length < diameter of the nucleus) [2] | Class 2 cells (tail length between 1× and 2× the diameter of the nucleus) [2] | Class 3 cells (tail length > 2× the diameter of the nucleus) [2] | No. of cells: Comets [2] | BAX (pro-apoptotic gene) expression level [3] | cytotoxicity at 100 µg/mL (A549 (lung carcinoma); A549, 48 h) [%]
1 | COc1ccc(-c2nn(-c3ccccc3)c3nc(=O)c(C)nn23)cc1 [Compound 7g, 3-(4-Methoxyphenyl)-6-methyl-1-phenyl-[1,2,4]triazolo[4,3-b][1,2,4]triazin-7(1H)-one] | elevated | 82.3 ± 0.82 | 40.1 | 21.14 ± 0.85^b % | 347 | 32 | 38 | 23 | 93 | elevated | 
2 | COc1cccc2c1C(=O)c1c(O)c3c(c(O)c1C2=O)C[C@@](O)(C(=O)CO)C[C@@H]3O[C@H]1C[C@H](N)[C@H](O)[C@H](C)O1 [Dox, Doxorubicin, reference compound] | elevated |  | 43.8 | 23.86 ± 1.11^b % | 335 | 34 | 41 | 30 | 105 | elevated | 100
3 | Cc1nn2c(C)nn(-c3ccc([N+](=O)[O-])cc3)c2nc1=O [Compound 7a, 3,6-Dimethyl-1-(4-nitrophenyl)-[1,2,4]triazolo[4,3-b][1,2,4]triazin-7(1H)-one] | elevated | 80.4 ± 0.66 | 36.6 | 28.18 ± 1.25^a % | 316 | 37 | 45 | 42 | 124 | elevated | 

— publication PMC11862990, “Utility of 6-aza-2-thiothymine in the synthesis of novel [1,2,4]triazolo[4,3-b][1,2,4]triazin-7-one derivatives: synthesis, structure elucidation, molecular docking and in vitro anti-lung cancer activity” (RSC Advances, 2025)
